Test systems include SK-MEL-5 melanoma; HCT-116 colon; MOLT-4 leukemia; HOP-62 NSCLC; SF-268 CNS; MALME-3M melanoma; A549 NSCLC; SK-OV-3 ovarian; CCRF-CEM leukemia; A498 renal; MDA-N; TK-10 renal; OVCAR-4 ovarian; HCC-2998 colon; RPMI-8226 leukemia; SNB-75 CNS; SW-620 colon; OVCAR-3 ovarian; UACC-257 melanoma; OVCAR-5 ovarian.
What all share (assay): inhibition of tumour cell growth, NCI panel, 48 h

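Step 1: Grow cells in 96-well plates. Step 2: Expose to compound for 48 hours at 5 concentrations. Step 3: Interpolate endpoints linearly; if unreached, use highest concentration. The concentration for full growth arrest is given as TGI.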

As to `C=CCCCC1(C)CCCCNC1=O` (stereo not given), the TGI with SK-MEL-5 melanoma, in the experiment on HCT-116 colon, with MOLT-4 leukemia, with HOP-62 NSCLC, with SF-268 CNS and in the experiment on MALME-3M melanoma was above 10 µM in each case. Also, the TGI in the experiment with A549 NSCLC, in the experiment with SK-OV-3 ovarian, in the experiment with CCRF-CEM leukemia, with A498 renal, in the experiment on MDA-N and with TK-10 renal was above 10 µM throughout. Also, the TGI with OVCAR-4 ovarian, in the experiment on HCC-2998 colon, in the experiment on RPMI-8226 leukemia, in the experiment with SNB-75 CNS, in the experiment on SW-620 colon and with OVCAR-3 ovarian was above 10 µM each time. Also, the TGI with UACC-257 melanoma and in the experiment on OVCAR-5 ovarian was above 10 µM in each case.
As for `Cc1cc(S(=O)(=O)Nc2nc(N)n(C)n2)c(S)cc1Cl`, the TGI in the experiment with SK-MEL-5 melanoma, in the experiment on HCT-116 colon, with MOLT-4 leukemia, in the experiment on HOP-62 NSCLC, in the experiment on SF-268 CNS and in the experiment on MALME-3M melanoma was above 10 µM each time. The TGI with A549 NSCLC, in the experiment on SK-OV-3 ovarian, with CCRF-CEM leukemia, in the experiment on A498 renal, in the experiment on MDA-N and in the experiment on TK-10 renal was above 10 µM each time. Moreover, the TGI with OVCAR-4 ovarian, in the experiment on HCC-2998 colon, in the experiment on RPMI-8226 leukemia, in the experiment with SNB-75 CNS, with SW-620 colon and in the experiment with OVCAR-3 ovarian was above 10 µM throughout. The TGI in the experiment with UACC-257 melanoma and with OVCAR-5 ovarian was above 10 µM throughout.
Regarding `O=S(=O)(Nc1ccccc1S(=O)(=O)c1ccccc1)c1ccccc1`, the TGI in the experiment on SK-MEL-5 melanoma, in the experiment on HCT-116 colon, with MOLT-4 leukemia, in the experiment on HOP-62 NSCLC, in the experiment on SF-268 CNS and in the experiment with MALME-3M melanoma was above 100 µM each time. Besides, the TGI with A549 NSCLC, with SK-OV-3 ovarian, with CCRF-CEM leukemia, in the experiment with A498 renal, with MDA-N and in the experiment with TK-10 renal was above 100 µM in each case. For the same molecule, the TGI in the experiment on OVCAR-4 ovarian, in the experiment on HCC-2998 colon, with RPMI-8226 leukemia, with SNB-75 CNS, in the experiment with SW-620 colon and with OVCAR-3 ovarian was above 100 µM in each case. The TGI in the experiment on UACC-257 melanoma and in the experiment on OVCAR-5 ovarian was above 100 µM each time.
With `C=C1CC2(OC1=O)c1ccccc1CCc1ccccc12`, the TGI in the experiment with SK-MEL-5 melanoma is 28 µM; in the experiment on HCT-116 colon, 2.75 µM; in the experiment with MOLT-4 leukemia, 7.18 µM; in the experiment on HOP-62 NSCLC, 44 µM; with SF-268 CNS, 4.54 µM; in the experiment on MALME-3M melanoma, 4.25 µM. For the same molecule, the TGI with A549 NSCLC was 21.8 µM; in the experiment on SK-OV-3 ovarian, 31.9 µM; in the experiment with CCRF-CEM leukemia it was 2.49 µM; in the experiment on A498 renal, 41.2 µM; with MDA-N it was 3.34 µM; with TK-10 renal, 7.09 µM. Moreover, the TGI with OVCAR-4 ovarian turned out to be 4.65 µM; in the experiment on HCC-2998 colon it was 6.51 µM; with RPMI-8226 leukemia, 7.24 µM; in the experiment with SNB-75 CNS it was 15.6 µM; with SW-620 colon, 3.02 µM; with OVCAR-3 ovarian, 3.74 µM. The results for the TGI in the experiment on UACC-257 melanoma and with OVCAR-5 ovarian were 7.9 µM and 27.7 µM, respectively.
On to `COc1cc(OC)c(/C=N/N=C(\N)NO)c(OC)c1`, for which the TGI in the experiment with SK-MEL-5 melanoma, in the experiment on HCT-116 colon, in the experiment with MOLT-4 leukemia, in the experiment with HOP-62 NSCLC, in the experiment with SF-268 CNS and in the experiment on MALME-3M melanoma was above 100 µM in each case. The TGI in the experiment with A549 NSCLC, in the experiment with SK-OV-3 ovarian, in the experiment with CCRF-CEM leukemia, with A498 renal, with MDA-N and in the experiment on TK-10 renal was above 100 µM in each case. Besides, the TGI in the experiment with OVCAR-4 ovarian was above 100 µM; with HCC-2998 colon, above 100 µM; in the experiment with RPMI-8226 leukemia it was above 100 µM; in the experiment with SNB-75 CNS it was 64.7 µM; in the experiment on SW-620 colon, above 100 µM; in the experiment with OVCAR-3 ovarian, above 100 µM. Besides, the TGI in the experiment on UACC-257 melanoma and in the experiment on OVCAR-5 ovarian was above 100 µM throughout.

The record behind these values is PubChem BioAssay (NCI).
